This is an account of results in patent publication US8901138B2, “Sulfoximine substituted quinazolines for pharmaceutical compositions” (Boehringer Ingelheim International GmbH, priority 2012, dated 2014).

pIC50: −log10 of the molar value.

One test deals with phosphorylated elF4E. As to conditions: cell culture cells transfected with MNK2 (MNK2a or MNK2b) or MNK1; cited from earlier work.
A further test deals with MNK1a (Homo sapiens, UniProt Q9BUB5). Description: MNK1 in vitro kinase assay (assay 2), Z'-LYTE. The format is biochemical. The following applies: for inhibition at 1 µM: compound concentration of 1 μM; for pIC50: pre-activated GST-MNK1a. In a few lines:
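Pre-activated GST-MNK1a (13.5-54 ng) with 2 μM Ser/Thr 07 FRET peptide in 50 mM HEPES pH 7.5, 10 mM MgCl2, 2 mM MnCl2, 1 mM EGTA, 1 mM DTT, 1% DMSO; 1 h kinase then 1 h development at room temperature. Coumarin/fluorescein emission ratio gives % phosphorylation; sigmoidal dose-response fit.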

In a further test the target is T1, MNK2a (Homo sapiens, UniProt Q9HBH9).
T1 construct: made in house
Description: MNK2a in vitro kinase assay (assay 1), ADP-Glo. Type of test: biochemical. As to conditions: preactivated GST-MNK2a, 20 μM ATP, read-out: MNK2 IC50. In a few lines:
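Preactivated GST-MNK2a (10 nM) with eIF4E peptide (25 μM) and ATP (20 μM) in HEPES/DTT/MgCl2 buffer, 90 min at room temperature, final DMSO <3%. ADP formed read by ADP-Glo luminescence and normalised to vehicle and 20 μM reference-inhibitor controls; IC50 from dose-response curves.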

T1 sequence (Q9HBH9 whole entry): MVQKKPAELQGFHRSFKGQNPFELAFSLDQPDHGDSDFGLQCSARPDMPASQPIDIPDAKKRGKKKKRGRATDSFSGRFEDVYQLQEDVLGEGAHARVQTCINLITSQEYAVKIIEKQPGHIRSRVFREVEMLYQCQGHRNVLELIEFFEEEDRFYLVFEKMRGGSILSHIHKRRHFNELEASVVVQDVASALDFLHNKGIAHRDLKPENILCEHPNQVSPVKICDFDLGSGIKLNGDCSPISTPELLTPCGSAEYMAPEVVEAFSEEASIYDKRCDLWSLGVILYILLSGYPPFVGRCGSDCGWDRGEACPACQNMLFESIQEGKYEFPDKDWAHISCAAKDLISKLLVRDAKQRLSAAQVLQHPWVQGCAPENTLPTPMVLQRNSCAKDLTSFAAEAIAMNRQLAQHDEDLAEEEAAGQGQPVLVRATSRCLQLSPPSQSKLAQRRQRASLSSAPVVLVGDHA
Chain of MNK1a (Q9BUB5 1-424 isoform Q9BUB5-2): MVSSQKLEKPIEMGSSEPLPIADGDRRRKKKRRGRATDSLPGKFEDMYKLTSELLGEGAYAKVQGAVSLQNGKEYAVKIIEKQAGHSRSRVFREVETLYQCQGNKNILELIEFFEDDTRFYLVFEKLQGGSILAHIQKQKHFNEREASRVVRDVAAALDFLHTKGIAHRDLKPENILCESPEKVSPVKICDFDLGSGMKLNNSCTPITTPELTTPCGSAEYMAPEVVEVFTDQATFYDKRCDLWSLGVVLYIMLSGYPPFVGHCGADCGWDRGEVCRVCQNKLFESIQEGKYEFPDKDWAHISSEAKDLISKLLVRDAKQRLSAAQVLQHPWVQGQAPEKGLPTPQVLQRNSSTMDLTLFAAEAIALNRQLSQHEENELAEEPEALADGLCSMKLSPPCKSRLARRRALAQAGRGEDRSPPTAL

With `Nc1ncnc2n[nH]c(Nc3ccc(F)cc3)c12` [CGP57380], the “reduction of phosphorylated elF4E” value with phosphorylated elF4E is given as “strong reduction”. The molecule `CS(C)(=O)=Nc1cc(F)c2c(Nc3cccnc3O[C@@H]3CCCN(CCO)C3)ncnc2c1` [Example 6.11] had an inhibition at 1 µM against MNK1a of 72%. Besides, the pIC50 on MNK2a is 7.51. For `CS(C)(=O)=Nc1cc(F)c2c(Nc3ccc(F)cc3O[C@@H]3CCCN(Cc4ncon4)C3)ncnc2c1` [Example 6.12] the same measures were 91% and 7.92. For `CS(C)(=O)=Nc1cc(F)c2c(Nc3ccc(F)cc3O[C@@H]3CCCN(CC(F)(F)F)C3)ncnc2c1` [Example 6.13] the same measures were 80% and 8.40. For `CS(C)(=O)=Nc1cc(F)c2c(Nc3ccc(F)cc3O[C@@H]3CCN(CCO)C3)ncnc2c1` [Example 6.15], in that order: 82% and 7.62. For the molecule `CS(C)(=O)=Nc1cc(F)c2c(Nc3ccc(F)cc3O[C@@H]3CCN(CC(F)F)C3)ncnc2c1` [Example 6.16], at 1 µM the inhibition against MNK1a was 90%. In addition, the pIC50 on MNK2a is 8.15. For `Cc1cc(N=S(C)(C)=O)cc2ncnc(Nc3ccc(F)cc3O[C@@H]3CCN(CCO)C3)c12` [Example 6.17] the same measures were 79% and 7.64. For `Cc1cc(N=S2(=O)CCCC2)cc2ncnc(Nc3ccc(F)cc3O[C@@H]3CCN(S(C)(=O)=O)C3)c12` [Example 6.18] the same measures were 98% and 9.00. For `Cc1cc(N=S(C)(C)=O)cc2ncnc(Nc3ccc(F)cc3O[C@@H]3CCCN(CCC#N)C3)c12` [Example 6.20], the inhibition at 1 µM on MNK1a amounted to 93%. The pIC50 at MNK2a is 8.40.

In the case of `CO[C@H]1CC[C@H](Oc2cc(F)ccc2Nc2ncnc3cc(N=S4(=O)CCN(C)CC4)cc(C)c23)CC1` [Example 7.1], the inhibition at 1 µM on MNK1a turned out to be 86%. In addition, at MNK2a, the negative-log IC50 (pIC50) was 8.30. For `CO[C@H]1CC[C@H](Oc2cc(F)ccc2Nc2ncnc3cc(N=S4(=O)CCN(C(C)=O)CC4)cc(C)c23)CC1` [Example 7.2], in that order: 82% and 8.22.

`CNC(=O)N1CCS(=O)(=Nc2cc(C)c3c(Nc4ccc(F)cc4O[C@H]4CC[C@H](OC)CC4)ncnc3c2)CC1` [Example 7.4] returned an inhibition at 1 µM against MNK1a of 88%. Besides, the pIC50 at MNK2a is 8.15.

On MNK1a, `CO[C@H]1CC[C@H](Oc2cc(F)ccc2Nc2ncnc3cc(N=S4(=O)CCN(C(=O)N(C)C)CC4)cc(C)c23)CC1` [Example 7.5] had an inhibition at 1 µM of 77%. Also, at MNK2a, the negative-log IC50 (pIC50) is 8.15.

Molecule `Cc1cc(N=S(C)(C)=O)cc2ncnc(Nc3ccc(C#N)cc3OC3CCOCC3)c12` [Example 7.6] returned an inhibition at 1 µM against MNK1a of 99%. Moreover, at MNK2a, the pIC50 is 8.22. For `C=Cc1cc(N=S(C)(C)=O)cc2ncnc(Nc3ccc(F)cc3O[C@H]3CCOC3)c12` [Example 7.7], in that order: 97% and 8.70. For `CS(C)(=O)=Nc1cc(C#N)c2c(Nc3ccc(F)cc3O[C@H]3CCOC3)ncnc2c1` [Example 7.9] the same measures were 96% and 8.52.

For `CSc1cc(N=S(C)(C)=O)cc2ncnc(Nc3ccc(F)cc3O[C@H]3CCOC3)c12` [Example 7.10], testing at 1 µM on MNK1a gave an inhibition of 100%. At MNK2a, the pIC50 is 8.70. For the molecule `CS(C)(=O)=Nc1cc(SCF)c2c(Nc3ccc(F)cc3O[C@H]3CCOC3)ncnc2c1` [Example 7.11], at MNK1a, 1 µM produced 98% inhibition. For the same molecule, the pIC50 on MNK2a was 8.30.

Regarding `Cc1cc(N=S(C)(C)=O)cc2ncnc(Nc3ccc(F)cc3OC3CC3)c12` [Example 7.12], the pIC50 against MNK1a is 7.06; on MNK2a, 8.40.

In the case of `Cc1cc(N=S(C)(C)=O)cc2ncnc(Nc3ccc(F)cc3O[C@H]3C[C@H](N(C)C)C3)c12` [Example 7.15], at 1 µM the inhibition against MNK1a was 92%. Further, the pIC50 at MNK2a is 8.00.

`Cc1cc(N=S(C)(C)=O)cc2ncnc(Nc3ccc(F)cc3O[C@@H]3CCC[C@H]3O)c12` [Example 7.16]: the pIC50 was 7.60 against MNK1a and 9.00 on MNK2a.

Take `Cc1cc(N=S(C)(C)=O)cc2ncnc(Nc3ccc(F)cc3O[C@@H]3CCCC[C@H]3F)c12` [Example 7.17]: the inhibition at 1 µM at MNK1a turned out to be 96%. The pIC50 on MNK2a was 9.00. For `Cc1cc(N=S(C)(C)=O)cc2ncnc(Nc3ccc(F)cc3OC3CNOC3)c12` (stereo not drawn) [Example 7.18] the same measures were 93% and 8.70.

Broadly, the inhibition is the change of the read-out against control, counted positive when it falls. Read a high inhibition as a strong effect. What is called pIC50 is −log10 of the IC50, conventionally taken in molar units.
